Data: patent publication US20090247548A1, “PYRROLOPYRIMIDINE DERIVATIVES FOR TREATING PROLIFERATIVE DISEASES” (priority 2004, published 2009)

melting point: 240 to 242 °C
SMILES: C[C@@H](Nc1ncnc2[nH]c(-c3ccc(CN4CCNCC4)cc3)cc12)c1ccccc1 [Example 1, ((R)-1-Phenyl-ethyl)-[6-(4-piperazin-1-ylmethyl-phenyl)-7H-pyrrolo[2,3-d]pyrimidin-4-yl]-amine]
